From ChEMBL document CHEMBL4806963, “Antagonistic peptides for frizzled-1 and frizzled-2” (2013)
Activity calls are given as the source filed them. Where a SMILES comes first, the peptide text is derived from it. Bridges are numbered along the chain shown (N, C = ends).

Columns and labels:
[1] = target: Frizzled-2 (Homo sapiens) (UniProt Q14332); experiment: Antagonist activity at Wnt3a-stimulated frizzled-2 (unknown origin) expressed in human HEK293superTOP flash cells incubated for 24 hrs by luciferase reporter gene assay; format: functional, cell-based; conditions: HEK293
[2] = target: Frizzled-1 (Homo sapiens) (UniProt Q9UP38); experiment: Antagonist activity at Wnt3a-stimulated frizzled-1 (unknown origin) expressed in human HEK293superTOP flash cells incubated for 24 hrs by luciferase reporter gene assay; format: functional, cell-based; conditions: HEK293
[3] = target: Frizzled-1 (Homo sapiens) (UniProt Q9UP38); experiment: Agonist activity at frizzled-1 (unknown origin) expressed in human HEK293superTOP flash cells by luciferase reporter gene assay; format: functional, cell-based; conditions: HEK293
[4] = target: Frizzled-2 (Homo sapiens) (UniProt Q14332); experiment: Agonist activity at frizzled-2 (unknown origin) expressed in human HEK293superTOP flash cells by luciferase reporter gene assay; format: functional, cell-based; conditions: HEK293
[5] = target: Frizzled-1 (Rattus norvegicus) (UniProt Q08463); experiment: Agonist activity at rat frizzled-1 expressed in CHO cells by luciferase reporter gene assay; format: cell-based
[6] = target: Frizzled-2 (Rattus norvegicus) (UniProt Q08464); experiment: Antagonist activity at Wnt3a-stimulated rat frizzled-2 expressed in African green monkey COS7 cells incubated for 24 hrs by luciferase reporter gene assay relative to control; format: cell-based; conditions: filed as antagonist, concentration not given here
[7] = target: Frizzled-2 (Rattus norvegicus) (UniProt Q08464); experiment: Agonist activity at rat frizzled-2 expressed in CHO cells by luciferase reporter gene assay; format: cell-based
[8] = target: Frizzled-1 (Rattus norvegicus) (UniProt Q08463); experiment: Agonist activity at rat frizzled-1 expressed in African green monkey COS7 cells by luciferase reporter gene assay; format: cell-based
[9] = target: Frizzled-2 (Rattus norvegicus) (UniProt Q08464); experiment: Antagonist activity at Wnt3a-stimulated rat frizzled-2 expressed in CHO cells incubated for 24 hrs by luciferase reporter gene assay relative to control; format: cell-based; conditions: filed as antagonist, concentration not given here
[10] = target: Frizzled-1 (Rattus norvegicus) (UniProt Q08463); experiment: Agonist activity at rat frizzled-1 expressed in human HEK293superTOP flash cells by luciferase reporter gene assay; format: cell-based; conditions: HEK293
[11] = target: Frizzled-1 (Rattus norvegicus) (UniProt Q08463); experiment: Antagonist activity at Wnt3a-stimulated rat frizzled-1 expressed in human HEK293superTOP flash cells at 10 nM incubated for 24 hrs by luciferase reporter gene assay relative to control; format: cell-based; conditions: HEK293, filed as antagonist
[12] = target: Frizzled-2 (Rattus norvegicus) (UniProt Q08464); experiment: Antagonist activity at Wnt3a-stimulated rat frizzled-2 expressed in human HEK293superTOP flash cells at 10 nM incubated for 24 hrs by luciferase reporter gene assay relative to control; format: cell-based; conditions: HEK293, filed as antagonist
[13] = target: Frizzled-2 (Rattus norvegicus) (UniProt Q08464); experiment: Agonist activity at rat frizzled-2 expressed in African green monkey COS7 cells by luciferase reporter gene assay; format: cell-based
[14] = target: Frizzled-1 (Rattus norvegicus) (UniProt Q08463); experiment: Antagonist activity at Wnt3a-stimulated rat frizzled-1 expressed in African green monkey COS7 cells incubated for 24 hrs by luciferase reporter gene assay relative to control; format: cell-based; conditions: filed as antagonist, concentration not given here
[15] = target: Frizzled-1 (Rattus norvegicus) (UniProt Q08463); experiment: Antagonist activity at Wnt3a-stimulated rat frizzled-1 expressed in CHO cells incubated for 24 hrs by luciferase reporter gene assay relative to control; format: cell-based; conditions: filed as antagonist, concentration not given here
[16] = target: Frizzled-2 (Rattus norvegicus) (UniProt Q08464); experiment: Agonist activity at rat frizzled-2 expressed in human HEK293superTOP flash cells by luciferase reporter gene assay; format: cell-based; conditions: HEK293
[17] = target: T1, Frizzled-4 (Homo sapiens) (UniProt Q9ULV1); experiment: Agonist activity at frizzled-4 (unknown origin) expressed in human HEK293superTOP flash cells by luciferase reporter gene assay; format: functional, cell-based; conditions: HEK293
T1 sequence (whole entry): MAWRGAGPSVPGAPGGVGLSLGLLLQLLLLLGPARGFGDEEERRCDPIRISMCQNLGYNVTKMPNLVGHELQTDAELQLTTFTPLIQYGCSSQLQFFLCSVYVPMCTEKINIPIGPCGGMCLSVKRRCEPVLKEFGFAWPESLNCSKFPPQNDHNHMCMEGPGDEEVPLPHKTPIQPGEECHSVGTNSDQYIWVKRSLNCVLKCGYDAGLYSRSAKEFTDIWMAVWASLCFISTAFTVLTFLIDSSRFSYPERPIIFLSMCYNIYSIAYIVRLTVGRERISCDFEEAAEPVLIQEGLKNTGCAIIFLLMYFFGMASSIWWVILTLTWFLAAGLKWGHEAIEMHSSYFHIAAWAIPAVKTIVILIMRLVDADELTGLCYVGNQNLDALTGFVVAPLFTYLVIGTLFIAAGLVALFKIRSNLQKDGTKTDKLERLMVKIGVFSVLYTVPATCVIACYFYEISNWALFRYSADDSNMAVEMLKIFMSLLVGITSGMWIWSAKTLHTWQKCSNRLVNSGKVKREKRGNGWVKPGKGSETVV

[18] = target: Frizzled-5 (Homo sapiens) (UniProt Q13467); experiment: Agonist activity at frizzled-5 (unknown origin) expressed in human HEK293superTOP flash cells by luciferase reporter gene assay; format: functional, cell-based; conditions: HEK293
[19] = target: Frizzled-1 (Homo sapiens) (UniProt Q9UP38); experiment: Antagonist activity at Wnt3a-stimulated frizzled-1 (unknown origin) expressed in human HEK293superTOP flash cells at 10 nM incubated for 24 hrs by luciferase reporter gene assay; format: functional, cell-based; conditions: HEK293
[20] = target: Frizzled-1 (Rattus norvegicus) (UniProt Q08463); experiment: Antagonist activity at Wnt3a-stimulated rat frizzled-1 expressed in African green monkey COS7 cells up to 10 uM incubated for 24 hrs by luciferase reporter gene assay; format: cell-based; conditions: dose microM <=10, time 24.0 hrs
[21] = target: Frizzled-1 (Rattus norvegicus) (UniProt Q08463); experiment: Antagonist activity at Wnt3a-stimulated rat frizzled-1 expressed in CHO cells up to 10 uM incubated for 24 hrs by luciferase reporter gene assay; format: cell-based; conditions: dose microM <=10, time 24.0 hrs
[22] = target: Frizzled-2 (Rattus norvegicus) (UniProt Q08464); experiment: Antagonist activity at Wnt3a-stimulated rat frizzled-2 expressed in […] cells up to 10 uM incubated for 24 hrs by luciferase reporter gene assay; format: cell-based; conditions: dose microM <=10, time 24.0 hrs
[23] = target: Frizzled-2 (Homo sapiens) (UniProt Q14332); experiment: Antagonist activity at Wnt3a-stimulaed frizzled-2 (unknown origin) expressed in human HEK293superTOP flash cells at 1 nM incubated for 24 hrs by luciferase reporter gene assay (reference value: 0%); format: functional, cell-based; conditions: HEK293, filed as antagonist
[24] = target: Frizzled-2 (Rattus norvegicus) (UniProt Q08464); experiment: Antagonist activity at Wnt3a-stimulated rat frizzled-2 expressed in African green monkey COS7 cells up to 10 uM incubated for 24 hrs by luciferase reporter gene assay; format: cell-based; conditions: dose microM <=10, time 24.0 hrs
[25] = target: Frizzled-1 (Homo sapiens) (UniProt Q9UP38); experiment: Antagonist activity at Wnt3a-stimulaed frizzled-1 (unknown origin) expressed in human HEK293superTOP flash cells at 1 nM incubated for 24 hrs by luciferase reporter gene assay (reference value: 0%); format: functional, cell-based; conditions: HEK293, filed as antagonist
[26] = target: Frizzled-2 (Homo sapiens) (UniProt Q14332); experiment: Antagonist activity at Wnt3a-stimulated frizzled-2 (unknown origin) expressed in human HEK293superTOP flash cells at 10 nM incubated for 24 hrs by luciferase reporter gene assay; format: functional, cell-based; conditions: HEK293

Sequence of Frizzled-1 (Rattus norvegicus) (Q08463 whole entry): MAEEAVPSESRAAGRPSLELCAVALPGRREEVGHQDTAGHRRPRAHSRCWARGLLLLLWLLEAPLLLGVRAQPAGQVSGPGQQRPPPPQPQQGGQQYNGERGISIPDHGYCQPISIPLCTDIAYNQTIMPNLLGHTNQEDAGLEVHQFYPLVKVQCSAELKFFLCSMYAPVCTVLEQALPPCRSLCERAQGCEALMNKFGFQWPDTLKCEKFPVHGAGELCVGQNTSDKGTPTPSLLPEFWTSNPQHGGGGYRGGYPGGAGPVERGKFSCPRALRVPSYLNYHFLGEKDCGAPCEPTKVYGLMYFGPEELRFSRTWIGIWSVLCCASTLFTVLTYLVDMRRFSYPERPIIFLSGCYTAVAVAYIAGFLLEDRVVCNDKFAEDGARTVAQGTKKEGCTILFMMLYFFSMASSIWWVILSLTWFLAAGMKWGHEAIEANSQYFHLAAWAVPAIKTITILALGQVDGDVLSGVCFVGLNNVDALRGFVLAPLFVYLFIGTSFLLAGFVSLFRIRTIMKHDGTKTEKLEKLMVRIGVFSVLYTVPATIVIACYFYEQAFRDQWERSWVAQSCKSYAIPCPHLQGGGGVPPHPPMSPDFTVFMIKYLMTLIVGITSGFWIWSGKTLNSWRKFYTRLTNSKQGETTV
Sequence of Frizzled-2 (Rattus norvegicus) (Q08464 29-570 limits assumed): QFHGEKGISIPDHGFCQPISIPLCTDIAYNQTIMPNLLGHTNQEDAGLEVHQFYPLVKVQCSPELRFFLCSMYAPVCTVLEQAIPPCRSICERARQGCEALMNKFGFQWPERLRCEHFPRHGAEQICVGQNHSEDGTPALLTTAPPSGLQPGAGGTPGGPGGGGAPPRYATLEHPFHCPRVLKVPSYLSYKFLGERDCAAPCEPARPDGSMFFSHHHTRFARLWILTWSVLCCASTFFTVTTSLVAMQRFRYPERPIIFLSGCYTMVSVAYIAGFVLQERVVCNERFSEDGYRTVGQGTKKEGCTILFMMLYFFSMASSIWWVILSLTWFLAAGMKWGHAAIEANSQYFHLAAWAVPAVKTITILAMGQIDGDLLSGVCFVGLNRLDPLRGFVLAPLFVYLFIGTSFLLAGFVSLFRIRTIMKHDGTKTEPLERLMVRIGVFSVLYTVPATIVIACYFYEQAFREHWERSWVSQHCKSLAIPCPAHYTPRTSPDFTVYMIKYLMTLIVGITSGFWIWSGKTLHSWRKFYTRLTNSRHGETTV
Sequence of Frizzled-1 (Homo sapiens) (Q9UP38 70-647 limits assumed): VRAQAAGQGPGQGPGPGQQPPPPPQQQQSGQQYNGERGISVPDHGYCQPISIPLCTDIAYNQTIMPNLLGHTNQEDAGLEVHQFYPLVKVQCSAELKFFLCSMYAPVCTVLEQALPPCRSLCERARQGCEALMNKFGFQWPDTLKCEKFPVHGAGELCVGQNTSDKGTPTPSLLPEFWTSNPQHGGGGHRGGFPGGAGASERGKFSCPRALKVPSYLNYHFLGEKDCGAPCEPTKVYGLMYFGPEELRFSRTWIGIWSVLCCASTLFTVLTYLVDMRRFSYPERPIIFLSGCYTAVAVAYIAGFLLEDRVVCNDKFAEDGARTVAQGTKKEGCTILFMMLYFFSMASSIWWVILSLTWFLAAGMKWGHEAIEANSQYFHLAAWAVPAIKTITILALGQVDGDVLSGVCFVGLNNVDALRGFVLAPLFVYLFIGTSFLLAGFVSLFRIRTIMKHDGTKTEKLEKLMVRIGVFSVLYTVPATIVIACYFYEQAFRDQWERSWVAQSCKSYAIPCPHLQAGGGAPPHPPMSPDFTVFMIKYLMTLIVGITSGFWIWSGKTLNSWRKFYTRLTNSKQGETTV
Sequence of Frizzled-2 (Homo sapiens) (Q14332 24-565 limits assumed): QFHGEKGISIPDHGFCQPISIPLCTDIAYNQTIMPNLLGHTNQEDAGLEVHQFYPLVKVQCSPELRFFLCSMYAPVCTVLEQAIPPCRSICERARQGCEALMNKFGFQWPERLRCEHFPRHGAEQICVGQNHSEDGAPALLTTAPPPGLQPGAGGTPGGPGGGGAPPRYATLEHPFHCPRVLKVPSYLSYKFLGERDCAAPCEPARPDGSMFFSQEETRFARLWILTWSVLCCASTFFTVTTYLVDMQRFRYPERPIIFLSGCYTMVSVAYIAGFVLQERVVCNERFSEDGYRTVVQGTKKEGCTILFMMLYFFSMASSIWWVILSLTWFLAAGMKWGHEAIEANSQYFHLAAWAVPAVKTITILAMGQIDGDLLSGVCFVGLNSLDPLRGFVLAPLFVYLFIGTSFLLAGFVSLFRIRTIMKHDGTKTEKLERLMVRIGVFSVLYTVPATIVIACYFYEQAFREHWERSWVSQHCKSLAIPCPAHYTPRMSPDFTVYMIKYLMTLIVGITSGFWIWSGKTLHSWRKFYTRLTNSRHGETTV
Sequence of Frizzled-5 (Homo sapiens) (Q13467 whole entry): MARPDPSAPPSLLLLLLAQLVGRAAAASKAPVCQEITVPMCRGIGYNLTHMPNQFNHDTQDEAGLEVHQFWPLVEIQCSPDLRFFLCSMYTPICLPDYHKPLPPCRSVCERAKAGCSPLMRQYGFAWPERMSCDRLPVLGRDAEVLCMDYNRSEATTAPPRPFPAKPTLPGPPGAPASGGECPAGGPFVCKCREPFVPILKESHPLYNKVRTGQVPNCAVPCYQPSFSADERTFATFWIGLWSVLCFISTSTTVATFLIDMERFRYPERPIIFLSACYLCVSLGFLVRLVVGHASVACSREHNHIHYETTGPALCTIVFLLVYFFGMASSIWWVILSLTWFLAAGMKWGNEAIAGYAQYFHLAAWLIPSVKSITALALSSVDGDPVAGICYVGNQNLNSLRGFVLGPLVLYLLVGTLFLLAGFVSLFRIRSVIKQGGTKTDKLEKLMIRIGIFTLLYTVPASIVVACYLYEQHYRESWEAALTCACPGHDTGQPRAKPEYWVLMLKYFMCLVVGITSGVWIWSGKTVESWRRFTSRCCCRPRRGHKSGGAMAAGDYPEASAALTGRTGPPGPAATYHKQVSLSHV

Ac-MNRHNNEAGR-NH2
inactive: inhibition [1] | inhibition [2] | Activity [3] | Activity [4]

Ac-GSKGTQGRACN-NH2
inactive: inhibition [1] | inhibition [2] | Activity [3] | Activity [4]

Ac-GDWEWGECSDNI-NH2
inactive: inhibition [1] | inhibition [2] | Activity [3] | Activity [4]

CC(=O)N[C@@H](CS)C(=O)N[C@@H](CCCCN)C(=O)N[C@@H](CS)C(=O)N[C@@H](Cc1cnc[nH]1)C(=O)NCC(=O)N[C@H](C(=O)N[C@@H](CO)C(=O)NCC(=O)N[C@@H](CO)C(=O)N[C@@H](CS)C(=O)N[C@H](C(=O)N[C@H](C(=O)N[C@@H](CCCCN)C(=O)N[C@H](C(=O)N[C@@H](CS)C(=O)N[C@@H](Cc1c[nH]c2ccccc12)C(N)=O)[C@@H](C)O)C(C)C)[C@@H](C)O)C(C)C (Ac-CKCHGVSGSCTVKTCW-NH2)
inactive: inhibition [1] | inhibition [2] | Activity [3] | Activity [4]

CC[C@H](C)[C@H](NC(=O)CNC(C)=O)C(=O)N[C@@H](CCCCN)C(=O)N[C@@H](CCC(=O)O)C(=O)N[C@@H](CS)C(=O)N[C@@H](CCC(N)=O)C(=O)N[C@@H](Cc1ccc(O)cc1)C(=O)N[C@@H](CCC(N)=O)C(=O)N[C@@H](Cc1ccccc1)C(=O)N[C@@H](CCCNC(=N)N)C(=O)N[C@@H](Cc1c[nH]cn1)C(=O)N[C@@H](CCCNC(=N)N)C(=O)N[C@@H](CCCNC(=N)N)C(=O)N[C@@H](Cc1c[nH]c2ccccc12)C(=O)N[C@@H](CC(N)=O)C(=O)N[C@@H](CS)C(=O)N[C@@H](CO)C(=O)N[C@H](C(=O)N[C@H](C(=O)N[C@@H](CC(=O)O)C(N)=O)C(C)C)[C@@H](C)O (Ac-GIKECQYQFRHRRWNCSTVD-NH2)
100%: inhibition [6] | inhibition [9] | inhibition [11] | inhibition [12] | inhibition [14] | inhibition [15]
inactive: Activity [5] | Activity [7] | Activity [8] | Activity [10] | Activity [13] | Activity [16]

CSCC[C@H](NC(=O)CNC(=O)[C@H](CO)NC(=O)[C@H](CCCCN)NC(=O)[C@H](CC(N)=O)NC(=O)[C@H](CS)NC(C)=O)C(=O)N[C@@H](CC(=O)O)C(=O)NCC(=O)N[C@@H](CS)C(=O)N[C@@H](CCC(=O)O)C(=O)N[C@@H](CC(C)C)C(N)=O (Ac-CNKSGMDGCEL-NH2)
inactive: inhibition [1] | inhibition [2] | Activity [3] | Activity [4]

Ac-DLVYFELSPDFCA-NH2
inactive: inhibition [1] | inhibition [2] | Activity [3] | Activity [4]

CSCC[C@@H]1NC(=O)CNC(=O)[C@H](CCC(=O)O)NC(=O)[C@H](CO)NC(=O)[C@H]([C@@H](C)O)NC(=O)[C@H](CCCCN)NC(=O)[C@H](CC(N)=O)NC(=O)[C@@H](NC(C)=O)CSSC[C@@H](C(=O)N[C@@H](CCC(=O)O)C(=O)N[C@@H](CC(C)C)C(N)=O)NC(=O)CNC(=O)[C@H](CC(=O)O)NC1=O (Ac-CNKTSEGMDGCEL-NH2; disulfide 1-11)
inactive: Activity [17] | Activity [18]

CSCC[C@H](NC(=O)CNC(=O)[C@H](CCC(=O)O)NC(=O)[C@H](C)NC(=O)[C@@H](NC(=O)[C@H](CCCCN)NC(=O)[C@H](CC(N)=O)NC(=O)[C@H](CS)NC(C)=O)[C@@H](C)O)C(=O)N[C@@H](CC(=O)O)C(=O)NCC(=O)N[C@@H](CS)C(=O)N[C@@H](CCC(=O)O)C(=O)N[C@@H](CC(C)C)C(N)=O (Ac-CNKTAEGMDGCEL-NH2)
87.3%: inhibition [23]
74.3%: inhibition [25]
inactive: inhibition [19] | inhibition [20] | inhibition [21] | inhibition [22] | inhibition [24] | inhibition [26]

CSCC[C@H](NC(=O)CNC(=O)[C@H](CCC(=O)O)NC(=O)[C@H](CO)NC(=O)[C@@H](NC(=O)[C@H](CCCCN)NC(=O)[C@H](CC(N)=O)NC(=O)[C@H](CS)NC(C)=O)[C@@H](C)O)C(=O)N[C@@H](CC(=O)O)C(=O)NCC(=O)N[C@@H](CS)C(=O)N[C@@H](C)C(=O)N[C@@H](CC(C)C)C(N)=O (Ac-CNKTSEGMDGCAL-NH2)
inactive: inhibition [19] | inhibition [20] | inhibition [21] | inhibition [22] | inhibition [24] | inhibition [26]
65.9%: inhibition [25]
85.5%: inhibition [23]

CSCC[C@H](NC(=O)[C@H](C)NC(=O)[C@H](CCC(=O)O)NC(=O)[C@H](CO)NC(=O)[C@@H](NC(=O)[C@H](CCCCN)NC(=O)[C@H](CC(N)=O)NC(=O)[C@H](CS)NC(C)=O)[C@@H](C)O)C(=O)N[C@@H](CC(=O)O)C(=O)NCC(=O)N[C@@H](CS)C(=O)N[C@@H](CCC(=O)O)C(=O)N[C@@H](CC(C)C)C(N)=O (Ac-CNKTSEAMDGCEL-NH2)
63.1%: inhibition [23]
inactive: inhibition [19] | inhibition [20] | inhibition [21] | inhibition [22] | inhibition [24] | inhibition [26]
52.6%: inhibition [25]

CC[C@H](C)[C@H](NC(C)=O)C(=O)N[C@@H](CCC(=O)O)C(=O)N[C@@H](CCC(=O)O)C(=O)N[C@@H](CS)C(=O)N[C@@H](CCC(N)=O)C(=O)N[C@@H](Cc1cnc[nH]1)C(=O)N[C@@H](CCC(N)=O)C(=O)N[C@@H](Cc1ccccc1)C(=O)N[C@@H](CCCNC(=N)N)C(=O)N[C@@H](CC(=O)O)C(=O)N[C@@H](CCCNC(=N)N)C(=O)N[C@@H](CCCNC(=N)N)C(=O)N[C@@H](Cc1c[nH]c2ccccc12)C(=O)N[C@@H](CC(N)=O)C(=O)N[C@@H](CS)C(N)=O (Ac-IEECQHQFRDRRWNC-NH2)
inactive: inhibition [1] | inhibition [2] | Activity [3] | Activity [4]
